A value given as a limit tells only on which side of the number the result lay.

Consider `O=C(O)c1ccc(CN(C2CCOCC2)S(=O)(=O)c2ccc(Cl)cc2)cc1`, for which the melting point (as a rule, the temperature, or range, at which the solid turns liquid) lay within 218 to 219 °C.

Consider `Cc1nc(C)c(C(=O)Nc2cc(Oc3ccc4nc(NC(=O)C5CC5)cn4n3)ccc2F)o1`, for which the melting point was 202 °C.

Compound `O=S(=O)(F)c1cc2nc(Cl)c(Cl)nc2cc1Cl` had a melting point of 109 to 111 °C.

As to `O=c1[nH]c2ccc(OCCCCN3CCC(c4cccc(Cl)c4Cl)CC3)cc2[nH]1`, the melting point was 180 to 182 °C.

In turn, `Cc1ccc(-c2nc(COc3ccc(CCCn4ccnc4)cc3)cs2)s1` had a melting point of 78 to 79 °C.

Consider `CC(C)(OC(=O)NC(Cc1c[nH]c2ccccc12)C(=O)NC(Cc1ccccc1)C(N)=O)C(Cl)(Cl)Cl` (stereo not drawn), for which the melting point is 187 °C.

The compound `O=C(Nc1cccc2c1ncc1c(=O)n3ccnc3sc12)c1c(Cl)cccc1Cl` displayed a melting point of more than 250 °C.

Compound `CCCCc1oc2ccccc2c1C(=O)NCc1ccc2c(Br)c(OC(Cc3ccccc3)C(=O)OC)ccc2c1` (stereo not drawn) returned a melting point of 110 to 112 °C.

`COc1ccc(S(=O)(=O)Nc2ccncc2)c2c1[nH]c1ccccc12` had a melting point of 311 to 313 °C.

As for `COC(=O)c1c(F)cc(OCCNC(=O)C2Cc3ccccc3N2S(=O)(=O)c2ccc(-c3cc(C(F)(F)F)ccc3Cl)cc2)cc1F` (stereo not drawn), the melting point was 78 °C.

Consider `Nc1nc(N)c2ncn(COCCO)c2n1`, for which the melting point fell in the range of 183 to 184 °C.

`CN=Cc1c(C(=O)OC)[nH]c2c(C)ccc(C)c12` registered a melting point of 261 to 262 °C.

With `Fc1ccc(Nc2ncnc3cnc(N4CCC(CCC5CCNCC5)CC4)nc23)cc1Cl`, the melting point lay in the range of 112 to 114 °C.

In turn, `COc1cc(Oc2ccc(S(C)(=O)=O)nc2)cc2cc(C3=NCC(CC(=O)NC[C@H](C)O)S3)[nH]c12` (stereo partly drawn) displayed a melting point of 185 to 186 °C.

In turn, `CC(C)(C)OC(=O)N[C@H](Cc1cccc(OC(F)(F)C(F)F)c1)[C@@H](O)c1csc(-c2ccccc2)n1` (racemic) showed a melting point of 127 to 128 °C.

`CCOC(=O)c1cn(CCCl)c2nc(N3CCN(C(C)=O)CC3)ncc2c1=O` returned a melting point of 205 to 206 °C.

The compound `O=C(NCCCn1ccnc1)c1[nH]c2ccc(Cl)cc2c1S(=O)(=O)c1ccccc1` had a melting point of 216 to 218 °C.

In turn, `Nc1c(Cl)cc(C(=O)NC2CCN(CC3CCCO3)CC2)c2c1CCO2` (stereo not drawn) returned a melting point of 175 °C.

As for `CCn1c(=O)cc(C)c2cc(C(O)(C(F)(F)F)C(F)(F)F)ccc21`, the melting point is 91 to 92 °C.

Take `O=C(O)CC1c2cc([N+](=O)[O-])ccc2CCN1C(=O)OCc1ccccc1` (stereo not drawn): the melting point is 160 to 162 °C.

`COC(=O)CCCCc1cc2c(n1-c1ccccc1)CC(O)C2` (stereo not drawn) registered a melting point of 83 to 85.5 °C.

Turning to `Cc1cc(SC2=C(O)CC(CCc3cccs3)(C(C)C)OC2=O)c(C(C)(C)C)cc1CO` (stereo not drawn), the melting point fell in the range of 73 to 77 °C.

In the case of `CC(C=O)C(C(=O)O)c1ccc(Cl)c(Cl)c1` (stereo not drawn), the melting point is 124 to 126 °C.

In the case of `CCNC(=O)c1c(Br)cccc1[Si](C)(C)C`, the melting point is 121 to 122 °C.

`Nc1nc(C2CC2)nc(C(Cl)(Cl)Cl)n1` registered a melting point of 111 to 114 °C.

With `Cc1cc(O)n2nc(CS)nc2n1`, the melting point was 215 °C.

`CCCCCCCCCCCCCCCCc1ccccc1O` registered a melting point of 54 to 55 °C.

For `O=[N+]([O-])c1ccc2nc(Cl)nc(-c3ccccc3Cl)c2c1`, the melting point was 228 °C.

In turn, `CN(C)Cc1ccc(CNC(=O)C2Cc3ccccc3N2S(=O)(=O)c2ccc(-c3ccccc3C(F)(F)F)cc2)cc1` (stereo not drawn) yielded a melting point of 53 °C.

As for `Cc1ccc(C)n1-c1ccc(C2(C#N)CCCC2)cc1`, the melting point lay in the range of 117 to 120 °C.

For the compound `Fc1ccccc1-c1nc2cnccc2o1`, the melting point was 110 to 111 °C.

In turn, `Cc1nc2cc(NC(=O)c3ccc(Cl)cc3Cl)ccc2n1C` returned a melting point of 275 to 277 °C.

Take `CC(C)NC(=O)c1cc(Cl)nc(Cl)c1NC(=O)c1cc(C(F)(F)F)nn1-c1ncccc1Cl`: the melting point lay in the range of 240 to 242 °C.

For `Cc1cc(CCCCCOc2ccc(-c3nc(C)c(C)s3)cc2)on1`, the melting point is 96 to 97 °C.

Compound `Nc1cc(Br)c(OC(F)(F)C(F)Cl)cc1[N+](=O)[O-]` (stereo not drawn) came in with a melting point of 90 °C.

The compound `CCOC(=O)NN=C(c1ccc(Cl)cc1)c1ccc(NS(C)(=O)=O)cc1` showed a melting point of 198 to 200 °C.

For the compound `COc1cc(Nc2nccc(-c3ccc(NCCCO)cc3)n2)cc(OC)c1OC`, the melting point was 86 to 90 °C.

The compound `Cc1cccc(-c2n[nH]cc2-c2ccc(F)c(-c3cnn(C)c3)c2)n1` came in with a melting point of 155 to 156 °C.

In the case of `O=C(O)Cc1cccc(OCCCCl)c1`, the melting point was in the range of 83 to 84 °C.

Compound `Cc1cc(-c2cc(N)ccc2F)cc(C)n1` came in with a melting point of 142 to 145 °C.

As to `O=C(OCc1ccccc1)c1ccc2cc(OCc3ccccc3)ccc2c1`, the melting point fell in the range of 97 to 98 °C.

With `Cc1c(C(=O)O)ccc2c1OC(c1ccccc1)(c1ccccc1)O2`, the melting point fell in the range of 263 to 265 °C.

In turn, `CCOC(=O)C(=COS(=O)(=O)c1ccc(C)cc1)c1ccccc1` came in with a melting point of 159 to 160 °C.

Consider `CCCC(=O)c1ccc(=O)[nH]c1C`, for which the melting point was 167 to 168 °C.

In the case of `CCC(C)(C)C(O)(C#Cc1cccnc1)c1cncnc1` (stereo not drawn), the melting point is 170 to 172 °C.

Compound `CCCCc1nc2cc(-c3ccccc3)cc(C(=O)O)c2n1Cc1ccccc1Cl` showed a melting point of 236 to 238 °C.

With `COc1ccc(NC(=O)Nc2ccc(Cl)c(Cl)c2)cc1NC(=S)Nc1cc(C(F)(F)F)cc(C(F)(F)F)c1`, the melting point amounted to 181 °C.

As to `COc1ccccc1S(=O)(=O)OC(Cl)C(=O)c1ccccc1` (stereo not drawn), the melting point turned out to be 83 °C.

`COc1cccc2c(OCCN3CCOCC3)c(-c3ccccc3)c(=O)oc12` had a melting point of 90 to 91 °C.

With `CC1C(=O)N(C(=O)NS(=O)(=O)c2ccc(Cl)cc2)N1C(c1ccccc1)c1ccccc1` (stereo not drawn), the melting point is 124 to 129 °C.

On to `CC(C)(C)OC(=O)N1CCc2cc(N)c(N)cc2CC1`, for which the melting point lay in the range of 147 to 149 °C.

`CCCCCCCCCCCCCCOc1cc(OCCCOc2ccc(O)cc2)cc(C(=O)O)c1` showed a melting point of 91 to 93 °C.

In the case of `CCOC(=O)[C@@H]1O[C@@H]1c1ccc(C)cc1`, the melting point came out at 66 °C.

Compound `CC(Oc1ccccc1Cl)C(=O)OC1CC(O)C=C2C=CC(C)C(CCC3CC(O)CC(=O)O3)C21` (mixture of isomers) gave a melting point of 152 to 155 °C.

`COc1ccc(S(C)(=O)=O)cc1C=O` gave a melting point of 140 to 143 °C.

Consider `Cc1cc(C2C(=O)Oc3c2cc(C(C)(C)C)cc3C(C)(C)C)cc(C)c1O` (stereo not drawn), for which the melting point was 225 to 228 °C.

As for `O=c1cc(-c2ccc3ccccc3c2)[nH]c2ccccc12`, the melting point was in the range of 290 to 292 °C.

In turn, `COC(=O)c1cc([N+](=O)[O-])ccc1F` had a melting point of 52 to 53 °C.

In turn, `Nc1cc(N)c(OCC(F)(F)F)cc1OCC(F)(F)F` returned a melting point of 109 °C.

Compound `COc1ccc(-c2nc(C)ccc2OC2SCC(O)C(O)C2O)cc1` (stereo not drawn) showed a melting point of 86 to 90 °C.

For the compound `Cn1cnc2c(N(Cc3ccccc3)Cc3ccccc3)nc(Cl)nc21`, the melting point is 144 to 146 °C.

Consider `CN1CCC(c2cc3c(F)cccc3c(=O)[nH]2)CC1`, for which the melting point was in the range of 220 to 222 °C.

As for `CC#CCNC(=C[N+](=O)[O-])NCCSCc1[nH]cnc1C`, the melting point lay within 148 to 151 °C.

For the compound `CCc1[nH]n(C2CCCC2)c2nc(-c3cccc(OCc4ccncc4)c3)nc(=O)c1-2`, the melting point is 230 to 232 °C.

The compound `O=C(O)COc1ccc(CN2C(=O)C3(COc4cc5c(cc43)OCCO5)c3ccccc32)cc1` (stereo not drawn) came in with a melting point of 223 to 224 °C.

Compound `COC(=O)c1cc2cc(OC)c(OC)cc2nc1N` came in with a melting point of 227 to 229 °C.

In turn, `Cc1cc(C)cc(OCC(O)CO)c1` (stereo not drawn) showed a melting point of 47 to 49 °C.

Compound `CCc1nc(C)c(Cc2c(O)ccc3ccccc23)[nH]1` showed a melting point of 166 °C.

Turning to `COc1ccc2c(c1OC)CCOC2CCl` (stereo not drawn), the melting point fell in the range of 63 to 65 °C.

For the compound `O=C(O)c1c(F)c(OC(F)F)c(F)c(F)c1[N+](=O)[O-]`, the melting point lay in the range of 77 to 80 °C.

Turning to `Nc1cc(-n2cc(C(=O)O)c(=O)c3c(O)c(F)c(F)cc32)c(F)cc1F`, the melting point is more than 270 °C.

In the case of `Cc1cc(C)n(-c2cnc(CN(C)C)c(Nc3ccc(Cl)cc3)n2)n1`, the melting point was 112 to 114 °C.

In turn, `COc1ccc(-c2cc(-c3ccccc3C(=O)O)no2)cc1` yielded a melting point of 182 to 185 °C.

`NC(=O)[C@@H]1CCCN1C(=O)/C=C/S(=O)(=O)c1ccccc1` registered a melting point of 157 to 158 °C.

`Oc1cc(/C=C/c2ccccc2)cc(O)c1O` registered a melting point of 172 °C.

`O=C1CCc2cc(NCC(=O)N3CCC(Cc4ccccc4)CC3)ccc2N1` had a melting point of 184 to 187 °C.

Take `COc1ccc(Cl)cc1-n1c(N(C)C)nc2cc(C(F)(F)F)ccc21`: the melting point was in the range of 230 to 234 °C.

With `COC(=O)C1(Nc2cc(Cl)c(Cl)cc2N)CCSC1` (stereo not drawn), the melting point stood at 162 °C.

As to `Cc1nc(-c2cccc3c2C2(COc4cc5c(cc42)OCCO5)C(=O)N3C)cs1` (stereo not drawn), the melting point lay in the range of 219 to 220 °C.

As to `CC(=N)Nc1cccc(CNO)c1`, the melting point was in the range of 214 to 215 °C.

`CN(C)C(=O)CCc1ccc2c(c1)nc(N)c1nc(CO)n(CC(C)(C)O)c12` displayed a melting point of 228 to 230 °C.

As for `CCCCCS(=O)(=O)NC(=O)/C=C/c1ccc(OCCO[Si](c2ccccc2)(c2ccccc2)C(C)(C)C)cc1Oc1ncc(C(F)(F)F)cc1Cl`, the melting point came out at 108 °C.

For `COc1ccccc1Oc1c(NS(=O)(=O)c2ccc(C(C)(C)C)cc2)nc(-c2ncccn2)nc1OCCOc1ccc(C(C)O)cc1` (stereo not drawn), the melting point fell in the range of 191 to 194 °C.

Compound `CCOc1c(C(=O)c2ccccc2)cnc2c1cnn2Cc1ccco1` displayed a melting point of 70 °C.

Turning to `COc1ccc(CCC(=O)NCc2ccccc2)cc1`, the melting point was in the range of 92 to 94 °C.

With `CC12CCC3C(CCC4CC(O)CCC43C)C1CC=C2c1cccnc1` (stereo not drawn), the melting point lay in the range of 198 to 199 °C.

As for `CN(C(=O)Cc1ccc2oc(=O)[nH]c2c1)[C@H](CN1CC[C@H](O)C1)c1ccccc1`, the melting point was 207 to 208 °C.

As to `C(=C\c1cc(/C=C/c2ccc3cc[nH]c3c2)n[nH]1)/c1ccc(OCc2ccccn2)cc1`, the melting point was in the range of 211 to 214 °C.

Source of the values: a melting point compilation (Tetko et al.; mined from patent text by program, amines drawn as free bases though some values may be those of a salt).
